Assay results reported in PubChem BioAssay AID1963985 (Molecular Pharmacology Branch, DTP, NCI, 2024).

System: 252836-082-R-J2-PDC tumor spheroids, viability
Test: Anticancer human tumor 252836-082-R-J2-PDC patient-derived head and neck squamous cell carcinoma cell line growth inhibition [PI3K]
Conditions: spheroids with HUVEC and MSC; for IC50: curve of first compound; for viability, T/C: stronger effect = lower value
Summary of the method: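 Targeted small molecules plus PI3K inhibitors, half-log dose series from Cmax (default top 10 microM), were applied to heterotypic spheroids of cancer cells with HUVEC and MSCs. Viability indicated growth inhibition.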

[1] = second compound 0.0316 µM, first compound 0.0316 µM
[2] = second compound 0.0316 µM, first compound 0.1 µM
[3] = second compound 0.0316 µM, first compound 0.316 µM
[4] = second compound 0.0316 µM, first compound 1 µM
[5] = second compound 0.0316 µM, first compound 3.16 µM
[6] = second compound 0.0316 µM, first compound 10 µM
[7] = second compound 0.1 µM, first compound 0.0316 µM
[8] = second compound 0.1 µM, first compound 0.1 µM
[9] = second compound 0.1 µM, first compound 0.316 µM
[10] = second compound 0.1 µM, first compound 1 µM
[11] = second compound 0.1 µM, first compound 3.16 µM
[12] = second compound 0.1 µM, first compound 10 µM
[13] = second compound 0.316 µM, first compound 0.0316 µM
[14] = second compound 0.316 µM, first compound 0.1 µM
[15] = second compound 0.316 µM, first compound 0.316 µM
[16] = second compound 0.316 µM, first compound 1 µM
[17] = second compound 0.316 µM, first compound 3.16 µM
[18] = second compound 0.316 µM, first compound 10 µM
[19] = second compound 1 µM, first compound 0.0316 µM
[20] = second compound 1 µM, first compound 0.1 µM
[21] = second compound 1 µM, first compound 0.316 µM
[22] = second compound 1 µM, first compound 1 µM
[23] = second compound 1 µM, first compound 3.16 µM
[24] = second compound 1 µM, first compound 10 µM
[25] = second compound 3.16 µM, first compound 0.0316 µM
[26] = second compound 3.16 µM, first compound 0.1 µM
[27] = second compound 10 µM, first compound 0.0316 µM
[28] = second compound 10 µM, first compound 0.1 µM
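Also: spheroids exposed to agents for seven days before readout.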
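For viability, T/C in this document: percent of vehicle DMSO control viability so 100% = untreated growth.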

`Cn1ncc(Cl)c1-c1cc(C(=O)NC(CN)Cc2cccc(F)c2)sc1Cl` (stereo unspecified) + CC(Nc1ccc2c(c1)OCCn1cc(N3C(=O)OCC3C(F)F)nc1-2)C(N)=O gave an IC50 (second compound 0.00316 µM) of 383 nM, an IC50 (second compound 0.01 µM) of 294 nM and an IC50 (second compound 0.0316 µM) of 328 nM. The IC50 (second compound 0.1 µM) was 160 nM, the IC50 (second compound 0.316 µM) was under 31.6 nM and the IC50 (second compound 1 µM) was under 31.6 nM. The viability, T/C (second compound 0.00316 µM, first compound 0.0316 µM) was 82.5%, the viability, T/C (second compound 0.00316 µM, first compound 0.1 µM) was 67.8% and the viability, T/C (second compound 0.00316 µM, first compound 0.316 µM) was 47.6%. The viability, T/C (second compound 0.00316 µM, first compound 1 µM) was 39.8%, the viability, T/C (second compound 0.00316 µM, first compound 3.16 µM) was 29.7% and the viability, T/C (second compound 0.00316 µM, first compound 10 µM) was 9.51%. It also gave a viability, T/C (second compound 0.01 µM, first compound 0.0316 µM) of 80.8%, a viability, T/C (second compound 0.01 µM, first compound 0.1 µM) of 62.8% and a viability, T/C (second compound 0.01 µM, first compound 0.316 µM) of 50%. The viability, T/C (second compound 0.01 µM, first compound 1 µM) was 33.6%, the viability, T/C (second compound 0.01 µM, first compound 3.16 µM) was 26.7% and the viability, T/C (second compound 0.01 µM, first compound 10 µM) was 12.8%. It also gave a viability, T/C [1] of 74.2%, a viability, T/C [2] of 61.8% and a viability, T/C [3] of 48.8%. For the same compound, the viability, T/C [4] was 39.3%, the viability, T/C [5] was 26.6% and the viability, T/C [6] was 11.5%. It also gave a viability, T/C [7] of 66.9%, a viability, T/C [8] of 53.3% and a viability, T/C [9] of 45.8%. The viability, T/C [10] was 26.9%, the viability, T/C [11] was 24.7% and the viability, T/C [12] was 8%. For the same compound, the viability, T/C [13] was 45.5%, the viability, T/C [14] was 43.3% and the viability, T/C [15] was 34.3%. The viability, T/C [16] was 25.6%, the viability, T/C [17] was 22.4% and the viability, T/C [18] was 14.1%. For the same compound, the viability, T/C [19] was 40.9%, the viability, T/C [20] was 36.8% and the viability, T/C [21] was 30.3%. The viability, T/C [22] was 24.8%, the viability, T/C [23] was 23.7% and the viability, T/C [24] was 10.5%.

In the case of `CCCS(=O)(=O)Nc1ccc(F)c(C(=O)c2c[nH]c3ncc(-c4ccc(Cl)cc4)cc23)c1F` + Cc1nc(NC(=O)N2CCCC2C(N)=O)sc1-c1ccnc(C(C)(C)C(F)(F)F)c1, the IC50 (second compound 0.0316 µM) is reported as 5160 nM, the IC50 (second compound 0.1 µM) is reported as 4740 nM and the IC50 (second compound 0.316 µM) is reported as 4210 nM. For the same compound, the IC50 (second compound 1 µM) was 3490 nM, the IC50 (second compound 3.16 µM) was 31.6 nM and the IC50 (second compound 10 µM) was under 31.6 nM. For the same compound, the viability, T/C [1] was 94.2%, the viability, T/C [2] was 95.6% and the viability, T/C [3] was 79.9%. For the same compound, the viability, T/C [4] was 84.7%, the viability, T/C [5] was 83.7% and the viability, T/C [6] was 4.52%. For the same compound, the viability, T/C [7] was 84.3%, the viability, T/C [8] was 84.3% and the viability, T/C [9] was 86.2%. For the same compound, the viability, T/C [10] was 96.3%, the viability, T/C [11] was 75.1% and the viability, T/C [12] was 3.91%. For the same compound, the viability, T/C [13] was 73.2%, the viability, T/C [14] was 62% and the viability, T/C [15] was 80.9%. It also gave a viability, T/C [16] of 78.2%, a viability, T/C [17] of 63.4% and a viability, T/C [18] of 5.17%. For the same compound, the viability, T/C [19] was 58.1%, the viability, T/C [20] was 52.7% and the viability, T/C [21] was 64.8%. It also gave a viability, T/C [22] of 57.5%, a viability, T/C [23] of 54.2% and a viability, T/C [24] of 4.7%. It also gave a viability, T/C [25] of 52.2%, a viability, T/C [26] of 38.9% and a viability, T/C (second compound 3.16 µM, first compound 0.316 µM) of 50.9%. For the same compound, the viability, T/C (second compound 3.16 µM, first compound 1 µM) was 54.1%, the viability, T/C (second compound 3.16 µM, first compound 3.16 µM) was 37.2% and the viability, T/C (second compound 3.16 µM, first compound 10 µM) was 7.19%. It also gave a viability, T/C [27] of 39.7%, a viability, T/C [28] of 35.7% and a viability, T/C (second compound 10 µM, first compound 0.316 µM) of 43.7%. The viability, T/C (second compound 10 µM, first compound 1 µM) was 37.8%, the viability, T/C (second compound 10 µM, first compound 3.16 µM) was 21.2% and the viability, T/C (second compound 10 µM, first compound 10 µM) was 4.33%.

Compound `Cn1ncnc1[C@H]1c2n[nH]c(=O)c3cc(F)cc(c23)N[C@@H]1c1ccc(F)cc1` + CC(Nc1ncnc2nc[nH]c12)c1cc2cccc(Cl)c2c(=O)n1-c1ccccc1 has an IC50 (second compound 0.0316 µM) of over 100 nM, an IC50 (second compound 0.1 µM) of over 100 nM and an IC50 (second compound 0.316 µM) of over 100 nM. It also gave an IC50 (second compound 1 µM) of over 100 nM, an IC50 (second compound 3.16 µM) of 90.3 nM and an IC50 (second compound 10 µM) of 23.1 nM. For the same compound, the viability, T/C (second compound 0.0316 µM, first compound 0.000316 µM) was 95.5%, the viability, T/C (second compound 0.0316 µM, first compound 0.001 µM) was 79.7% and the viability, T/C (second compound 0.0316 µM, first compound 0.00316 µM) was 94%. For the same compound, the viability, T/C (second compound 0.0316 µM, first compound 0.01 µM) was 94.4%, the viability, T/C [1] was 79.6% and the viability, T/C [2] was 58.8%. For the same compound, the viability, T/C (second compound 0.1 µM, first compound 0.000316 µM) was 94.3%, the viability, T/C (second compound 0.1 µM, first compound 0.001 µM) was 82.6% and the viability, T/C (second compound 0.1 µM, first compound 0.00316 µM) was 79.3%. It also gave a viability, T/C (second compound 0.1 µM, first compound 0.01 µM) of 87.6%, a viability, T/C [7] of 79.1% and a viability, T/C [8] of 51.9%. The viability, T/C (second compound 0.316 µM, first compound 0.000316 µM) was 97.5%, the viability, T/C (second compound 0.316 µM, first compound 0.001 µM) was 84% and the viability, T/C (second compound 0.316 µM, first compound 0.00316 µM) was 79.5%. The viability, T/C (second compound 0.316 µM, first compound 0.01 µM) was 80%, the viability, T/C [13] was 76.9% and the viability, T/C [14] was 57.8%. It also gave a viability, T/C (second compound 1 µM, first compound 0.000316 µM) of 84.8%, a viability, T/C (second compound 1 µM, first compound 0.001 µM) of 97.9% and a viability, T/C (second compound 1 µM, first compound 0.00316 µM) of 77.4%. It also gave a viability, T/C (second compound 1 µM, first compound 0.01 µM) of 81.5%, a viability, T/C [19] of 68.3% and a viability, T/C [20] of 57.9%. It also gave a viability, T/C (second compound 3.16 µM, first compound 0.000316 µM) of 71.5%, a viability, T/C (second compound 3.16 µM, first compound 0.001 µM) of 85.4% and a viability, T/C (second compound 3.16 µM, first compound 0.00316 µM) of 82.8%. It also gave a viability, T/C (second compound 3.16 µM, first compound 0.01 µM) of 64.3%, a viability, T/C [25] of 64.7% and a viability, T/C [26] of 48.2%. The viability, T/C (second compound 10 µM, first compound 0.000316 µM) was 55.1%, the viability, T/C (second compound 10 µM, first compound 0.001 µM) was 59.4% and the viability, T/C (second compound 10 µM, first compound 0.00316 µM) was 58.8%. The viability, T/C (second compound 10 µM, first compound 0.01 µM) was 63.4%, the viability, T/C [27] was 46.5% and the viability, T/C [28] was 31.2%.
